Measurements from PubChem BioAssay AID2060907 (Molecular Pharmacology Branch, DTP, NCI, 2025).
One block for each molecule: values may come before it.

Test system: 388556-164-R-J1-PDC complex spheroid viability
Experiment: Anticancer human tumor 388556-164-R-J1-PDC patient-derived colon adenocarcinoma cell line growth inhibition [RAS]
Conditions: for IC50: curve of first compound; for viability, T/C: stronger effect = lower value
Procedure, shortened: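 Multi-cell-type spheroids: tumor cells plus HUVEC endothelial cells and mesenchymal stem cells. RAS-pathway inhibitors were combined with targeted agents, each dosed in half-log steps down from clinical Cmax, or from 10 microM when Cmax was unknown.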

[1] = second compound 0.000949 µM, first compound 0.0316 µM
[2] = second compound 0.000949 µM, first compound 0.1 µM
[3] = second compound 0.003 µM, first compound 0.0316 µM
[4] = second compound 0.003 µM, first compound 0.1 µM
[5] = second compound 0.00949 µM, first compound 0.0316 µM
[6] = second compound 0.00949 µM, first compound 0.1 µM
[7] = second compound 0.03 µM, first compound 0.0316 µM
[8] = second compound 0.03 µM, first compound 0.1 µM
[9] = second compound 0.0949 µM, first compound 0.0316 µM
[10] = second compound 0.0949 µM, first compound 0.1 µM
[11] = second compound 0.3 µM, first compound 0.0316 µM
[12] = second compound 0.3 µM, first compound 0.1 µM
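Note: spheroids exposed to compound for 7 days before readout.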
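Throughout, for viability, T/C: 100% = DMSO vehicle control luminescence.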

IC50 (second compound 0.000949 µM): > 10000 nM
IC50 (second compound 0.003 µM): > 10000 nM
IC50 (second compound 0.00949 µM): > 10000 nM
IC50 (second compound 0.03 µM): > 10000 nM
IC50 (second compound 0.0949 µM): > 10000 nM
IC50 (second compound 0.3 µM): > 10000 nM
Compound: CC(C)NCC(C(=O)N1CCN(c2ncnc3c2C(C)CC3O)CC1)c1ccc(Cl)cc1 (centres undefined) + CCn1c(-c2cccnc2C(C)OC)c2c3cc(ccc31)N1CCOC(CC(NC(=O)C(C(C)C)N(C)C(=O)C3(F)CCN(C(=O)C#CC(C)(C)N(C)C)CC3)C(=O)N3CCCC(N3)C(=O)OCC(C)(C)C2)C1
viability, T/C [1]: 104%
viability, T/C [2]: 98%
viability, T/C (second compound 0.000949 µM, first compound 0.316 µM): 99.6%
viability, T/C (second compound 0.000949 µM, first compound 1 µM): 89.8%
viability, T/C (second compound 0.000949 µM, first compound 3.16 µM): 105%
viability, T/C (second compound 0.000949 µM, first compound 10 µM): 85.4%
viability, T/C [3]: 105%
viability, T/C [4]: 104%
viability, T/C (second compound 0.003 µM, first compound 0.316 µM): 102%
viability, T/C (second compound 0.003 µM, first compound 1 µM): 99.1%
viability, T/C (second compound 0.003 µM, first compound 3.16 µM): 102%
viability, T/C (second compound 0.003 µM, first compound 10 µM): 81.8%
viability, T/C [5]: 108%
viability, T/C [6]: 102%
viability, T/C (second compound 0.00949 µM, first compound 0.316 µM): 101%
viability, T/C (second compound 0.00949 µM, first compound 1 µM): 90.7%
viability, T/C (second compound 0.00949 µM, first compound 3.16 µM): 107%
viability, T/C (second compound 0.00949 µM, first compound 10 µM): 91.3%
viability, T/C [7]: 106%
viability, T/C [8]: 111%
viability, T/C (second compound 0.03 µM, first compound 0.316 µM): 84.6%
viability, T/C (second compound 0.03 µM, first compound 1 µM): 98.4%
viability, T/C (second compound 0.03 µM, first compound 3.16 µM): 106%
viability, T/C (second compound 0.03 µM, first compound 10 µM): 81.5%
viability, T/C [9]: 84.8%
viability, T/C [10]: 101%
viability, T/C (second compound 0.0949 µM, first compound 0.316 µM): 93.8%
viability, T/C (second compound 0.0949 µM, first compound 1 µM): 99.9%
viability, T/C (second compound 0.0949 µM, first compound 3.16 µM): 106%
viability, T/C (second compound 0.0949 µM, first compound 10 µM): 79.2%
viability, T/C [11]: 94.5%
viability, T/C [12]: 102%
viability, T/C (second compound 0.3 µM, first compound 0.316 µM): 86.6%
viability, T/C (second compound 0.3 µM, first compound 1 µM): 87.8%
viability, T/C (second compound 0.3 µM, first compound 3.16 µM): 95.5%
viability, T/C (second compound 0.3 µM, first compound 10 µM): 72.6%

IC50 (second compound 0.000949 µM): 56.8 nM
IC50 (second compound 0.003 µM): 57.7 nM
IC50 (second compound 0.00949 µM): 48.4 nM
IC50 (second compound 0.03 µM): 61.5 nM
IC50 (second compound 0.0949 µM): 57.4 nM
IC50 (second compound 0.3 µM): 49.8 nM
Compound: CC(C)n1nc(-c2ccc3oc(N)nc3c2)c2c(N)ncnc21 + CCn1c(-c2cccnc2C(C)OC)c2c3cc(ccc31)N1CCOC(CC(NC(=O)C(C(C)C)N(C)C(=O)C3(F)CCN(C(=O)C#CC(C)(C)N(C)C)CC3)C(=O)N3CCCC(N3)C(=O)OCC(C)(C)C2)C1
viability, T/C (second compound 0.000949 µM, first compound 0.000316 µM): 95.8%
viability, T/C (second compound 0.000949 µM, first compound 0.001 µM): 93.2%
viability, T/C (second compound 0.000949 µM, first compound 0.00316 µM): 88.7%
viability, T/C (second compound 0.000949 µM, first compound 0.01 µM): 74.5%
viability, T/C [1]: 63.6%
viability, T/C [2]: 38%
viability, T/C (second compound 0.003 µM, first compound 0.000316 µM): 102%
viability, T/C (second compound 0.003 µM, first compound 0.001 µM): 90.6%
viability, T/C (second compound 0.003 µM, first compound 0.00316 µM): 86.7%
viability, T/C (second compound 0.003 µM, first compound 0.01 µM): 77.6%
viability, T/C [3]: 64.8%
viability, T/C [4]: 37.7%
viability, T/C (second compound 0.00949 µM, first compound 0.000316 µM): 99.3%
viability, T/C (second compound 0.00949 µM, first compound 0.001 µM): 97.8%
viability, T/C (second compound 0.00949 µM, first compound 0.00316 µM): 96%
viability, T/C (second compound 0.00949 µM, first compound 0.01 µM): 77.3%
viability, T/C [5]: 60%
viability, T/C [6]: 34.9%
viability, T/C (second compound 0.03 µM, first compound 0.000316 µM): 100%
viability, T/C (second compound 0.03 µM, first compound 0.001 µM): 87.6%
viability, T/C (second compound 0.03 µM, first compound 0.00316 µM): 89.1%
viability, T/C (second compound 0.03 µM, first compound 0.01 µM): 82.5%
viability, T/C [7]: 60.5%
viability, T/C [8]: 41.3%
viability, T/C (second compound 0.0949 µM, first compound 0.000316 µM): 93%
viability, T/C (second compound 0.0949 µM, first compound 0.001 µM): 95.6%
viability, T/C (second compound 0.0949 µM, first compound 0.00316 µM): 80.2%
viability, T/C (second compound 0.0949 µM, first compound 0.01 µM): 78.6%
viability, T/C [9]: 63.8%
viability, T/C [10]: 37.9%
viability, T/C (second compound 0.3 µM, first compound 0.000316 µM): 84.3%
viability, T/C (second compound 0.3 µM, first compound 0.001 µM): 89.4%
viability, T/C (second compound 0.3 µM, first compound 0.00316 µM): 77.2%
viability, T/C (second compound 0.3 µM, first compound 0.01 µM): 72.5%
viability, T/C [11]: 58.9%
viability, T/C [12]: 36.8%
